Test results from US4617394A, “4-methyl-5-(unsubstituted and substituted phenoxy)-2,6-dimethoxy-8-(aminoalkylamino) quinolines” (priority 1985, dated 1986).
“Also recorded” adds a separate entry of the source. Where a name gives a salt, the structure may show the parent alone. Read-outs that look alike come from different tables or passages of the source.

Legend:
[1] = tested on: Plasmodium berghei KBG 173; test: animal or person; format: in vivo, young ICR/HA Swiss mice; conditions: for ΔMST / Activity in words / Toxicity in words: 5 mice; for suppressive activity in words: Rane mouse test; for Activity in words / Toxicity in words: Rane, 20-640 mg/kg; for minimal effective dose: Plasmodium berghei, in Mus musculus
Source text: Blood Schizonticidal Test (Mouse), University of Miami, Rane (suppressive)
This system is based on comparisons of responses to test compounds by Plasmodium berghei KBG 173 malaria in mice as expressed in mean survival times and the mean survival times of untreated controls. Thus, compounds noted as active produce increases in the survival times of the treated animals that are significant when compared with the survival times of untreated controls. Since an established disease is less sensitive to treatment than a disease in the early stages of development, treatment is withheld until the parasitemia is relatively high in order to insure a more reliable assay of activity and the selection of appropriate compounds for intensive preclinical studies.
Utilizing young ICR/HA Swiss mice and a standard inoculum of Plasmodium berghei KBG 173, it is possible to produce a uniform disease fatal to 100% of untreated animals within 6 to 8 days with a mean survival time of 6.2 days. Test animals weigh from 18 to 22 grams but weight variations in any given experimental or control group are confined to 2 to 3 grams. All animals in any given test are approximately of the same age. Animals on test are housed in metal-topped plastic cages, given a standard laboratory diet and water ad libitum.
Test animals receive an intraperitoneal injection of 0.5 ml of 1:100 dilution of heparinized heart's blood with a minimum of 90% parasitized cells (4×10^7 cells), drawn from donor mice infected one week earlier with Plasmodium berghei. The donor strain is maintained by weekly passages in separate groups of mice inoculated with a 0.5 ml of 1:500 dilution of heparinized heart's blood.
Test compounds are administered after dissolution or suspension in peanut oil. A single dose is given subcutaneously 72 hours after the mice are infected with Plasmodium berghei. At this time a 10-15 percent parasitemia has developed; the disease is well established but has not produced sufficient debility to alter the response of the host to toxic effects of the drug on test. Since treatment is withheld for three days to permit the infection to become well established and death occurs in untreated controls within 6 to 8 days, it is believed that this system presents a candidate compound with the maximum challenge. In order to check factors such as changes in the infectivity of Plasmodium berghei or in the susceptibility of the host or to detect technical errors, a group of infected animals treated with pyrimethamine at dose levels producing definite increases in survival time is included as a positive control in every experiment.
In each experiment test compounds are administered in graded doses. […] However, if an active drug is toxic for the host, its toxicity may become a limiting factor; continued increases in dose levels also increase the toxic effects and may result in the diminution of survival times. Deaths prior to the sixth day, when untreated controls begin to die, are regarded as non-parasitic and become the basis for the interpretation that the drug is toxic. Treated animals are kept under observation for 60 days. Survivors at the end of this period of time are considered as cured.
An increase of 100% in mean survival time is considered the minimum effective response for a candidate compound. In calculating mean survival time, toxic deaths and 60 day survivors are not included.

[2] = tested on: Plasmodium cynomolgi (strain B); test: Radical Curative Test in Rhesus Monkeys, SEATO Medical Research Laboratory; format: in vivo, Indian rhesus monkeys; conditions: for Radical Curative Activity, Cures (C): Table 1, Seato Rhesus; for Cures (C): Table 8, Seato
Protocol: Radical Curative Test in Rhesus Monkeys, SEATO Medical Research Laboratory, Bangkok,
This test is designed to evaluate the tissue schizonticidal (radical curative) activity of test compounds. Well-conditioned Indian rhesus monkeys of either sex weighing 2-4 Kg are utilized. Plasmodium cynomolgi (strain B) sporozoites are prepared by grinding heavily infected Anopheles dirus salivary glands in 1:1 monkey serum-saline vehicle.
Monkeys are infected by I.V. injection of 10^6 freshly isolated P. cynomolgi sporozoites on day 0. A rapidly rising parasitemia develops after a 7 to 9 day prepatient period, and administration of the test drug is initiated when the rising parasite count exceeds 5000 per mm^3 (typically day 10-12). Test drugs are administered orally (by nasogastric intubation) once daily for 7 consecutive days in aqueous solution or, if insoluble, in suspension in 0.3% methylcellulose solution. Chloroquine diphosphate (3.1 mg of base/kg orally per day) is always administered concurrently with the test drug for 7 days to eliminate blood schizonts. Thus any tissue schizonticidal activity of the test drug will always be apparent even if it lacks blood schizonticidal activity.
A vehicle control monkey and a positive drug control (primaquine) monkey are included in each group of inoculated monkeys.
The effect of the test drug is determined by counting blood parasites. Parasite counts are made daily through day 20, and every two days thereafter. Initially a clearance of blood parasites is observed due to the blood schizonticidal action of chloroquine. […] If there is no relapse within 20 days of the initial clearance of parasitemia, the monkey is splenectomized and its parasitemia followed for an additional 30 days. If there is no relapse within this period, the experiment is terminated and the monkey is considered "cured". Alternately, in some experiments, negative parasitemia was followed for 100 days without prior splenectomy. It has been determined that the splenectomy and non-splenectomy methods yield virtually identical results.
Primaquine diphosphate cures over 90% of monkeys in this test system when administered at a dose of 1.3 mg/kg of salt per day for 7 days ([…]) in combination with chloroquine.

[3] = Acute toxicity in the rat by oral or intraperitoneal administration; conditions: Rat
methemoglobin = format: in vivo, Dog
Protocol: ^a Primaquine, Comparative Compound, or Compound X, were administered
orally by capsule for four days on days 0, 1, 2 and 3 at a dose of 3 mg/k
primaquine base per day or the molar equivalent.
^e Total methemoglobin production expressed as mg of MHb/ml of
blood/hr for a total of 2 days after administration of the first dose.
^f Area under the % methemoglobin versus time curve (AUC).

[4] = tested on: Chesson strain of P. vivax; test: Antimalarial activity against (trophozoite-induced) infections of the Chesson strain of P. vivax in the Aotus monkey; format: in vivo
P. berghei yoelli = test: Causal prophylactic activity against sporozoite induced P. berghei yoelli in the mouse; format: in vivo; conditions: subcutaneous
[5] = Table 1, P. berghei, Rane Mouse Test, 160 mg/kg
[6] = text, listed as 5-(4-fluorophenoxy)-primaquine
[7] = text, listed as 5-(4-fluorophenoxy)primaquine
[8] = P. cynomolgi, 0.316 mg/kg (× 7)
[9] = oral capsule, days 0-3, 3 mg/kg primaquine base per day or molar equivalent, means differ significantly (p <.05)

COc1cc(NC(C)CCCN)c2ncccc2c1Oc1ccc(F)cc1 (stereo not drawn) [5-(4-Fluorophenoxy)primaquine citrate, 5-(4-fluorophenoxy)-primaquine]
ΔMST ([1]; Table 1, P. berghei, Rane Mouse Test, 80 mg/kg): 7.0 days
ΔMST [1, 5]: 9 days
suppressive activity in words [1, 6]: active (and non-toxic) in mice at the high dose levels of 320 and 640 mg/kg
suppressive activity in words [1, 7]: not an effective suppressive drug
Radical Curative Activity, Cures (C) [2, 8]: 0/2
Radical Curative Activity, Cures (C) ([2]; P. cynomolgi, 1.0 mg/kg (× 7)): 1/3
Radical Curative Activity, Cures (C) ([2]; P. cynomolgi, 3.16 mg/kg (× 7)): 1/1
radical curative activity compared with primaquine, in words [2, 6]: no more active than primaquine in the Rhesus model as a radical curative drug
radical curative activity compared with primaquine, in words [2, 7]: not significantly better than that of primaquine

COc1cc(NC(C)CCCN)c2nc(O)cc(C)c2c1Oc1cccc(C(F)(F)F)c1 (stereo not drawn) [Analog 1]
Activity in words ([1]; Table 8, P. berghei): Inactive
Toxicity in words ([1]; Table 8, P. berghei): non-toxic

COc1cc(NC(C)CCCN)c2nccc(C)c2c1Oc1cccc(C(F)(F)F)c1.O=C(O)CCC(=O)O (stereo not drawn) [Comparative Compound, 8-[(4-amino-1-methylbutyl)amino]-6-methoxy-4-methyl-5-(3-trifluoromethylphenoxy)quinoline succinate]
LD50 (95% Confidence Limit) ([3]; female, I.P.): 54 (42-71) mg/kg (Salt)
LD50 (95% Confidence Limit) ([3]; female, oral): 401 (368-447) mg/kg (Salt)
LD50 (95% Confidence Limit) ([3]; male, I.P.): 86 (65-109) mg/kg (Salt)
increase of peak methemoglobin level versus Compound X (methemoglobin; Table 7, equimolar doses): 56%
peak level of methemoglobin (methemoglobin; Table 7, equimolar doses): 25%
Peak % MHb (methemoglobin; [9]): 25.3 ± 8.30%
Slope of MHb Formation (methemoglobin; [9]): 0.55 ± 0.28
Time of Peak MHb (methemoglobin; [9]): 9.00 ± 1.73 days
MHb Disappearance Half-Time (methemoglobin; oral capsule, days 0-3, 3 mg/kg primaquine base per day or molar equivalent, no difference in the means): 9.14 ± 2.42 days
MHb Production as AUC Corrected for Baseline (methemoglobin; total methemoglobin production, oral capsule, days 0-3, 3 mg/kg primaquine base per day or molar equivalent, means differ significantly (p <.05)): 14,566 ± 5,475 mg of MHb/ml of blood/hr
Cures ([4]; 1 mg/kg × 3 of base): 1/3
Cures ([4]; 2 mg/kg × 3 of base): 5/5
Cures ([4]; 4 mg/kg × 3 of base): 4/4
Cures ([4]; 16 mg/kg × 3 of base): 3/3
ΔMST ([1]; Table 4, 5 mg/kg): 6 days
ΔMST ([1]; Table 4, 10 mg/kg): 4 days
ΔMST ([1]; Table 4, 20 mg/kg): 10 days
Cures (P. berghei yoelli; 2.5 mg/kg of salt): 6/15
Cures (P. berghei yoelli; 10 mg/kg of salt): 8/20
Cures (P. berghei yoelli; 40 mg/kg of salt): 13/15
Cures (P. berghei yoelli; 160 mg/kg of salt): 5/5
Cures ([2]; Table 2, P. cynomolgi, Rhesus, 0.0316 mg/kg × 7 of salt): 0/2
Cures ([2]; Table 2, P. cynomolgi, Rhesus, 0.10 mg/kg × 7 of salt): 0/2
Cures ([2]; Table 2, P. cynomolgi, Rhesus, 0.316 mg/kg × 7 of salt): 2/2
Cures ([2]; Table 2, P. cynomolgi, Rhesus, 1.0 mg/kg × 7 of salt): 2/2
Molar Primaquine Index by Regression Analysis ([2]; Table 2, ratio of molar ED50, relative to primaquine): 6.8

COc1cc(NC(C)CCCN)c2nc(OCc3ccc(Cl)cc3)cc(C)c2c1Oc1cccc(C(F)(F)F)c1 (stereo not drawn) [Analog 3]
Activity in words ([1]; Table 8, P. berghei): Inactive
Toxicity in words ([1]; Table 8, P. berghei): non-toxic

COc1cc(NC(C)CCCN)c2nccc(C)c2c1 (stereo not drawn) [4-methylprimaquine diphosphate, 4-methylprimaquine]
minimal effective dose ([1]; read-out: active dose (active only at)): 160 mg/kg
minimal effective dose ([1]; curative only at this toxic dose, read-out: curative dose, suppressive test): 640 mg/kg
suppressive activity in words [1]: very weak activity at non-toxic dose levels
ΔMST [1, 5]: 9 days
ΔMST ([1]; Table 1, P. berghei, Rane Mouse Test, 320 mg/kg): 10 days
ΔMST ([1]; Table 4, 160 mg/kg): 9 days
ΔMST ([1]; Table 4, 320 mg/kg): 10 days
radical curative activity compared with primaquine, in words [2]: comparable to primaquine and somewhat greater in potentcy; also recorded: slightly more effective than primaquine
radical curative activity in words ([2]; 0.316 mg/kg): inactive
Cures ([2]; 1.0 mg/kg): 100%
Radical Curative Activity, Cures (C) [2, 8]: 0/4
Radical Curative Activity, Cures (C) ([2]; P. cynomolgi, 1.0 mg/kg (× 7)): 2/2

COc1cc(NC(C)CCCN)c2nc(Oc3ccc(Cl)cc3)cc(C)c2c1Oc1cccc(C(F)(F)F)c1 (stereo not drawn) [Analog 2]
Activity in words ([1]; Table 8, P. berghei): Inactive
Toxicity in words ([1]; Table 8, P. berghei): non-toxic

COc1cc(NC(C)CCCN)c2nc(Cl)cc(C)c2c1Oc1cccc(C(F)(F)F)c1 (stereo not drawn) [Analog 4]
Cures (C) ([1]; Table 8, number of 5 mice, 160 mg/kg): 1
Cures (C) ([2]; P. cynomolgi, 0.1 mg/kg (×7)): 0/1
Cures (C) ([2]; P. cynomolgi, 0.316 mg/kg (×7)): 1/2
Cures (C) ([2]; P. cynomolgi, 1.0 mg/kg (×7)): 2/2
